Assay results reported in ChEMBL document CHEMBL1125995, “Synthesis of a difluoromethylenephosphonate analogue of AZT 5'-triphosphate and its inhibition of HIV-1 reverse transcriptase” (Bioorg Med Chem Lett, 1991).

What was measured:
[1] = target: T1, Human immunodeficiency virus type 1 reverse transcriptase (Human immunodeficiency virus 1, UniProt Q72547); assay: Compound concentration that causes 50 % inhibition of HIV-1 peptide-derived reverse transcriptase (RT)
[2] = target: T1, Human immunodeficiency virus type 1 reverse transcriptase; assay: Inhibitory constant was determined in an HIV-1 reverse transcriptase assay in which the [3H]dTTP concentration was varied (i.e. 40, 20, 10, 6, and 4 uM
[3] = target: T1, Human immunodeficiency virus type 1 reverse transcriptase; assay: Compound concentration that causes 50 % inhibition of HIV-1 peptide-derived reverse transcriptase (RT) obtained from HIV-1-infected H9 cell cultures

Row | Compound | IC50 [1] | Ki [2] | IC50 [3]
1 | Cc1cn(C2CC(N=[N+]=[N-])C(COP(=O)(O)OP(=O)(O)CP(=O)(O)O)O2)c(=O)[nH]c1=O (centres undefined) | 6950 nM |  | 
2 | Cc1cn(C2CC(N=[N+]=[N-])C(COP(=O)(O)OP(=O)(O)C(F)(F)P(=O)(O)O)O2)c(=O)[nH]c1=O (centres undefined) | 620 nM | 2230 nM | 
3 | Cc1cn([C@H]2C[C@H](N=[N+]=[N-])[C@@H](CO[P@](=O)(O)O[P@](=O)(O)OP(=O)(O)O)O2)c(=O)[nH]c1=O [ZIDOVUDINE TRIPHOSPHATE] |  |  | 22 nM
